Laboratory results taken from patent US11091486B2, “Process for the preparation of pyrazolo[1,5-a]pyrimidines and salts thereof” (Array BioPharma Inc., priority 2016, dated 2021).
Converted amounts (≈) assume the structure as drawn. “Also recorded” adds a separate entry of the source. Read-outs that look alike come from different tables or passages of the source.

Tests used:
Type in all cases: physicochemical
[1] = Salt stability studies, 40° C./75% RH for 1 week, XRPD
Procedure: Recovered salts were placed in an oven at 40° C./75% RH for 1 week, and the resultant materials were analyzed by XRPD to determine any changes to form or crystallinity.

[2] = Thermodynamic solubility of prepared salts
Procedure: Thermodynamic solubility studies were carried out as follows: 10 mg of prepared salts were suspended in pH 1, 4.5, 6.8 and un-buffered water (300 μL). The pH of the slurries was measured and adjusted accordingly using either 0.2M HCl solution or 0.2M sodium hydroxide solution. The slurries were agitated for 24 hours at ambient temperature using an incubator shaker.

[3] = Dynamic vapor sorption (DVS); details: for Hygroscopicity, mass uptake by DVS: at 90% RH; for Crystalline form by XRPD after exposure to DVS humidity conditions: post-DVS XRPD
Procedure: Approximately, 10 mg of sample was placed into a mesh vapor sorption balance pan and loaded into a DVS-1 dynamic vapor sorption balance by Surface Measurement Systems. The sample was subjected to a ramping profile from 40-90% relative humidity (RH) at 10% increments, maintaining the sample at each step until a stable weight had been achieved (99.5% step completion). After completion of the sorption cycle, the sample was dried using the same procedure to 0% RH and then a second sorption cycle back to 40% RH. The weight change during the sorption/desorption cycles were plotted, allowing for the hygroscopic nature of the sample to be determined. XRPD analysis was then carried out on any solid retained.

[4] = 1-week stability tests (40° C./75% RH, 80° C., ambient light), XRPD and UPLC
Excerpt: Compound 1 (Form I) was subjected to various different environmental conditions to assess stability.

[5] = Salt disproportionation studies; details: deionized water, 24 h at ambient temperature
Procedure: Salt disproportionation studies were carried out as follows: 20 mg of prepared salts were weighed into a vial and 0.5 mL of deionized water was added. The samples were then agitated for 24 h at ambient temperature. The pH of the samples was taken pre- and post-agitation. Any solids recovered were submitted for XRPD analysis to determine any changes to form.

[6] = Hydration screen in acetone/water mixtures; details: 24 hr
Procedure: Hydration screen was carried out as follows: 10 mg of prepared salts were suspended in several acetone/water mixtures of various water activities (low: aw=0.281, medium: aw=0.776 and high: aw=0.919) and agitated at ambient temperatures for 24 hr. Any recovered solids were submitted for XRPD analysis to determine any changes to form.

[7] = Approximate solvent solubility of amorphous Compound 1 free base by solvent addition (Example 1); details: for solubility: organic solvent or mixture, thermodynamic from solid, read-out: Approx. Solubility
Procedure: A solid Compound 1 was obtained as follows. A […] of solution containing about 330 mg of Compound 1 in warm 1,4-dioxane was divided between 33, 2 mL glass vials (1.5 mL in each). The solutions were frozen and freeze-dried by lyophilization overnight. The resulting material was then analyzed by XRPD to confirm mostly amorphous material.
Approximately 10 mg of amorphous Compound 1 was produced in 32×2 mL glass vials from freeze drying and 100 μL of the appropriate solvent system was added to the appropriate vial. Between each addition, the mixture was checked for dissolution and if no dissolution was apparent, the mixture was heated to about 40° C. and checked again. This procedure was continued until dissolution was observed or until 2 mL had been added (to the compound concentration of <5 mg/mL).

[8] = Gravimetric vapor sorption (GVS)
Procedure: Approximately 10-20 mg of sample was placed into a mesh vapor sorption balance pan and loaded into an IGASorp Moisture Sorption Analyzer balance by Hiden Analytical. […] After completion of the sorption cycle, the sample was dried using the same procedure to 0% RH, and finally taken back to the starting point of 40% RH. The weight change during the sorption/desorption cycles were plotted, allowing for the hygroscopic nature of the sample to be determined.

[9] = salt recovered from isopropanol

SMILES: C[C@@H]1CCc2ncc(F)cc2[C@H]2CCCN2c2ccn3ncc(c3n2)C(=O)N1.Cc1ccc(S(=O)(=O)O)cc1
- Post-stability XRPD: changes to form or crystallinity ([1]; salt recovered from acetone): become amorphous

SMILES: C[C@@H]1CCc2ncc(F)cc2[C@H]2CCCN2c2ccn3ncc(c3n2)C(=O)N1.O=S(=O)(O)c1ccccc1 [Compound 1 besylate]
- Thermodynamic solubility in words ([2]; pH 1): highly soluble
- Solid recovered from thermodynamic solubility slurry (XRPD) ([2]; pH 4.5): an unknown form
- Thermodynamic solubility in words ([2]; pH 4.5): moderately soluble
- Solid recovered from thermodynamic solubility slurry (XRPD) ([2]; pH 6.8): poorly crystalline free base
- Thermodynamic solubility in words ([2]; pH 6.8): low solubility
- Solid recovered from thermodynamic solubility slurry (XRPD) ([2]; unbuffered water): poorly crystalline free base
- Thermodynamic solubility in words ([2]; unbuffered water): moderately soluble
- Hygroscopicity, mass uptake by DVS [3]: about 0.7%
- Crystalline form by XRPD after exposure to DVS humidity conditions [3]: no changes in crystalline form
- 1-week stability test: change to form (XRPD) ([4]; 40° C./75% RH): appears to be a mixture of besylate salt and something else
- 1-week stability test: change in purity (UPLC) ([4]; 80° C.): no change to purity
- 1-week stability test: change to form (XRPD) ([4]; 80° C.): no change to form
- 1-week stability test: change in purity (UPLC) ([4]; ambient light): no change to purity
- 1-week stability test: change to form (XRPD) ([4]; ambient light): no change to form
- Salt disproportionation: recovered material by XRPD [5]: poorly crystalline free base
- Hydration study: recovered solid by XRPD ([6]; high water activity (aw=0.919)): poorly crystalline besylate salt
- Hydration study: recovered solid by XRPD ([6]; low water activity (aw=0.281)): poorly crystalline besylate salt

SMILES: C[C@@H]1CCc2ncc(F)cc2[C@H]2CCCN2c2ccn3ncc(c3n2)C(=O)N1.O=C(O)CC(O)(CC(=O)O)C(=O)O [Compound 1 citrate Form A]
- Hygroscopicity, mass uptake by DVS [3]: around 1.8%
- Post-stability XRPD: changes to form or crystallinity ([1]; salt recovered from TBME): a decrease to crystallinity but no change to form
- Post-stability XRPD: changes to form or crystallinity ([1]; salt recovered from acetone): a decrease to crystallinity but no change to form

SMILES: C[C@@H]1CCc2ncc(F)cc2[C@H]2CCCN2c2ccn3ncc(c3n2)C(=O)N1 [Compound 1, (6R,15R)-9-fluoro-15-methyl-2,11,16,20,21,24-hexaazapentacyclo[16.5.2.0^2,6.0^7,12.0^21,25]pentacosa-1(24),7,9,11,18(25),19,22-heptaen-17-one]
- solubility ([7]; 1,2-Dimethoxyethane): 8.3 mg/mL (≈ 21.8 mM)
- solubility ([7]; 1,4-Dioxane): 8.3 mg/mL (≈ 21.8 mM)
- solubility ([7]; 1-butanol): 17 mg/mL (≈ 44.7 mM)
- solubility ([7]; 2-Ethoxy ethanol): 50 mg/mL (≈ 131 mM)
- solubility ([7]; 2-Propanol): 14.3 mg/mL (≈ 37.6 mM)
- solubility ([7]; 2-butanone): 11.1 mg/mL (≈ 29.2 mM)
- solubility ([7]; Acetone): 11.1 mg/mL (≈ 29.2 mM)
- solubility ([7]; Acetonitrile): 12.5 mg/mL (≈ 32.9 mM)
- solubility ([7]; Dimethylsulfoxide): 50 mg/mL (≈ 131 mM)
- solubility ([7]; Ethanol): 20 mg/mL (≈ 52.6 mM)
- solubility ([7]; Methanol): 50 mg/mL (≈ 131 mM)
- solubility ([7]; Methylisobutyl ketone): 6.25 mg/mL (≈ 16.4 mM)
- solubility ([7]; Tetrahydrofuran, 40 °C): 20 mg/mL (≈ 52.6 mM)
- solubility ([7]; anisole): 11.1 mg/mL (≈ 29.2 mM)
- Solvent solubility in words ([7]; non-polar solvents such as toluene and 1,4-dioxane): low solubility
- solubility ([7]; Diglyme (bis(2-methoxyethyl ether))): 8.3 mg/mL (≈ 21.8 mM)
- Solvent solubility in words ([7]; polar aprotic solvents such as acetone, ethyl acetate and acetonitrile): medium solubility
- Solvent solubility in words ([7]; polar solvents such as DMSO, DMF and protic solvents such as methanol): high solubility
- Crystalline form by XRPD after exposure to GVS humidity conditions ([8]; post-GVS XRPD): no changes to form or crystallinity; also recorded: no changes in crystalline form
- Hygroscopicity, mass uptake by DVS [3]: about 0.7%
- Crystalline form by XRPD after exposure to DVS humidity conditions [3]: no change in crystalline form
- 1-week stability test: change in purity (UPLC) ([4]; 40° C./75% RH): no change in purity
- 1-week stability test: change to form (XRPD) ([4]; 40° C./75% RH): no change to form
- 1-week stability test: change in purity (UPLC) ([4]; 80° C.): no change in purity
- 1-week stability test: change to form (XRPD) ([4]; 80° C.): no change to form
- Average purity after 1-week stability test (UPLC) ([4]; 80° C. test): 99.3%
- 1-week stability test: change in purity (UPLC) ([4]; ambient light): no change in purity
- 1-week stability test: change to form (XRPD) ([4]; ambient light): no change to form
- Average purity after 1-week stability test (UPLC) ([4]; ambient light test): 99.2%
- Average purity after 1-week stability test (UPLC) ([4]; relative humidity test (40° C./75% RH)): 99.2%

SMILES: C[C@@H]1CCc2ncc(F)cc2[C@H]2CCCN2c2ccn3ncc(c3n2)C(=O)N1 [Form I, (6R,15R)-9-fluoro-15-methyl-2,11,16,20,21,24-hexaazapentacyclo[16.5.2.0^2,6.0^7,12.0^21,25]pentacosa-1(24),7,9,11,18(25),19,22-heptaen-17-one]
- Hygroscopicity, mass uptake by GVS ([8]; at 90% RH): about 0.3%
- Hygroscopicity, mass uptake by DVS [3]: about 0.7%

SMILES: C[C@@H]1CCc2ncc(F)cc2[C@H]2CCCN2c2ccn3ncc(c3n2)C(=O)N1.O=S(=O)(O)c1ccccc1 [besylate pattern 1]
- Post-stability XRPD: changes to form or crystallinity ([1]; salt recovered from TBME): preferred orientation but no changes to form
- Post-stability XRPD: changes to form or crystallinity ([1]; salt recovered from THF): an increase to crystallinity but no changes to form
- Post-stability XRPD: changes to form or crystallinity ([1]; salt recovered from ethanol): a decrease in crystallinity

SMILES: C[C@@H]1CCc2ncc(F)cc2[C@H]2CCCN2c2ccn3ncc(c3n2)C(=O)N1.O=C(O)C[C@H](O)C(=O)O [crystalline L-malate]
- Post-stability XRPD: changes to form or crystallinity ([1]; salt recovered from TBME): no change to crystallinity and form

SMILES: C[C@@H]1CCc2ncc(F)cc2[C@H]2CCCN2c2ccn3ncc(c3n2)C(=O)N1.O=C(O)/C=C/C(=O)O [crystalline fumarate]
- Post-stability XRPD: changes to form or crystallinity ([1]; salt recovered from acetone): a slight decrease to crystallinity however, no change to form

SMILES: CS(=O)(=O)O.C[C@@H]1CCc2ncc(F)cc2[C@H]2CCCN2c2ccn3ncc(c3n2)C(=O)N1 [crystalline mesylate]
- Post-stability XRPD: changes to form or crystallinity ([1]; salt recovered from acetone): no changes to crystallinity or form
- Post-stability XRPD: changes to form or crystallinity [1, 9]: a slight increase in crystallinity but no changes to form
- Post-stability XRPD: changes to form or crystallinity ([1]; salt recovered from methanol): a decrease in crystallinity but no changes to form

SMILES: C[C@@H]1CCc2ncc(F)cc2[C@H]2CCCN2c2ccn3ncc(c3n2)C(=O)N1.O=C(O)CCC(=O)O [crystalline succinate]
- Post-stability XRPD: changes to form or crystallinity ([1]; salt recovered from acetone): a decrease in crystallinity but no change to form

SMILES: C[C@@H]1CCc2ncc(F)cc2[C@H]2CCCN2c2ccn3ncc(c3n2)C(=O)N1 [edisylate]
- Post-stability XRPD: changes to form or crystallinity [1, 9]: become amorphous

SMILES: C[C@@H]1CCc2ncc(F)cc2[C@H]2CCCN2c2ccn3ncc(c3n2)C(=O)N1.O=C(O)C(=O)O [oxalate]
- Post-stability XRPD: changes to form or crystallinity ([1]; salt recovered from ethanol): a change in crystallinity and form
- Post-stability XRPD: changes to form or crystallinity ([1]; salt recovered from methanol): no change to crystallinity however, changes to form were seen
